Here are results for two compounds from ChEMBL document CHEMBL5500384, “New synergistic benzoquinone scaffolds as inhibitors of mycobacterial cytochrome bc1 complex to treat multi-drug resistant tuberculosis” (Eur J Med Chem, 2024).

Series [1] can be described thus: Acute toxicity in Albino mouse assessed as mortality at 300 mg/kg, po after 5 to 8 hrs. The following applies: in vivo, time 5-8 hrs. The format is organism-based.
The nature of series [2]: Acute toxicity in Albino mouse assessed as mortality at 50 mg/kg, po after 14 days. The format is organism-based. The following applies: in vivo, 336 h, time 14 day.
Series [3] in a line: Acute toxicity in Albino mouse assessed as change in platelet count at 50 to 2000 mg/kg, po measured after 14 days (reference value: 3.24 mm3). Format: organism-based. Set-up: unit not given here. The following applies: in vivo, 336 h, dose 50-2000 mg/kg, time 14 day.
For series [4], the system named is Mycobacterium tuberculosis. The experiment in a line: Antitubercular activity against Mycobacterium tuberculosis H37Rv assessed as effect on nucleoid morphology at 12.5 ug/ml by fluorescence microscopy analysis. Format: functional. The following applies: dose 12.5 µg/ml.
Series [5] deals with Mycobacterium tuberculosis. The experiment in a line: Antitubercular activity against Mycobacterium tuberculosis H37Rv assessed as effect on nucleoid morphology at 6.25 ug/ml by fluorescence microscopy analysis. The format is functional. The following applies: dose 6.25 µg/ml.
The nature of series [6]: Acute toxicity in Albino mouse assessed as mortality at 300 mg/kg, po after 14 days. The format is organism-based. The following applies: in vivo, 336 h, time 14 day.

Turning to `COc1ccc(C2C(Cl)C(=O)N2C2=C(Cl)C(=O)c3ccccc3C2=O)cc1` (configuration not stated), the Activity result in series [1] is reported as “Toxic”; in series [2], “Non-Toxic”; in series [3] it was 5.82; in series [4], 99%.
With `CN(C)c1ccc(C2C(Cl)C(=O)N2C2=C(Cl)C(=O)c3ccccc3C2=O)cc1` (configuration not stated), the Activity in series [3] was 6.22; in series [5] it was 99%; in series [6] it was “Non-Toxic”.
